Our source for the IC50 and EC50 values is ChEMBL document CHEMBL1128692, “Peptidomimetic inhibitors of herpes simplex virus ribonucleotide reductase: a new class of antiviral agents” (J Med Chem, 1995).

Non-standard residues stand in square brackets, D forms with d. Residues, ends and D or L forms follow the SMILES beside them. *: point of attachment. Asp(3,3-(CH2)4) = N[C@H](C(=O)O)C1(C(=O)O)CCCC1; Dibenzylacetyl = O=C(C(Cc1ccccc1)Cc1ccccc1)*; Leu(γ-Me)ol = CC(C)(C)C[C@@H](CO)N*; Hydrocinnamoyl = O=C(CCc1ccccc1)*; tBuAla = CC(C)(C)C[C@H](N)C(=O)O; Butanoyl(2-Et) = CCC(CC)C(=O)*; Chg = N[C@H](C(=O)O)C1CCCCC1; Tle = CC(C)(C)[C@H](N)C(=O)O; NMeV = CN[C@H](C(=O)O)C(C)C; Leu(ol) = CC(C)C[C@H](N)CO; Pyrrolidide = C1CCN(*)C1; Abu = CC[C@H](N)C(=O)O

The target of experiment [1] is Ribonucleotide reductase large subunit (Herpes simplex virus 1). Put plainly: In vitro inhibitory activity against HSV ribonucleotide reductase.
For experiment [2] the target is unchanged. Put plainly: Inhibitory activity against HSV-1 in baby hamster kidney cell.
In experiment [3] the target is Ribonucleotide reductase large subunit (Herpes simplex virus 2). Put plainly: Inhibitory activity against HSV-2 in baby hamster kidney cell.

A word on the IC50: it is the concentration needed to halve the response being measured. Lower therefore signals greater potency. The compound `CC(C)C[C@H](NC(=O)[C@H](CC(=O)O)NC(=O)[C@H](CC(=O)N1CCCC1)NC(=O)[C@@H](NC(=O)[C@@H](NC(=O)CCc1ccccc1)C(C)C)C(C)(C)C)C(=O)O` (Hydrocinnamoyl-V[Tle]D(Pyrrolidide)DL-OH) came in with an IC50 in experiment [1] of 0.004 µM.

`CC[C@H](NC(=O)CCc1ccccc1)C(=O)N[C@H](C(=O)N[C@@H](CC(=O)N1CCCC1)C(=O)N[C@@H](CC(=O)O)C(=O)N[C@@H](CC(C)C)C(=O)O)C(C)C` (Hydrocinnamoyl-[Abu]VD(Pyrrolidide)DL-OH) displayed an IC50 in experiment [1] of 0.34 µM.

As a reminder, the EC50 is the concentration needed to bring the measured effect to its halfway point. A higher EC50 goes with a less potent agent. Take `CC(C)[C@@H](C(=O)N[C@H](C(=O)N[C@@H](CC(=O)N1CCCC1)C(=O)N[C@@H](CC(=O)O)C(=O)N[C@H](CO)CC(C)(C)C)C(C)(C)C)N(C)C(=O)C(Cc1ccccc1)Cc1ccccc1` (Dibenzylacetyl-[NMeV][Tle]D(Pyrrolidide)D-{Leu(γ-Me)ol}): the figures for the EC50 in experiment [2] and in experiment [3] were 30 µM and 39 µM, respectively.

For the compound `CC(C)C[C@H](NC(=O)[C@H](CC(=O)O)NC(=O)[C@H](CC(=O)N1CCCC1)NC(=O)[C@@H](NC(=O)[C@@H](NC(=O)CCc1ccccc1)C(C)(C)C)C(C)C)C(=O)O` (Hydrocinnamoyl-[Tle]VD(Pyrrolidide)DL-OH), in experiment [1], it took 0.036 µM to reach half-maximal inhibition (IC50). In other words, the double-digit nanomolar range.

With `CC(C)[C@H](NC(=O)[C@H](C(C)C)N(C)C(=O)C(Cc1ccccc1)Cc1ccccc1)C(=O)N[C@@H](CC(=O)N1CCCC1)C(=O)N[C@H](C(=O)N[C@H](CO)CC(C)(C)C)C1(C(=O)O)CCCC1` (Dibenzylacetyl-[NMeV]VD(Pyrrolidide)[Asp(3,3-(CH2)4)]-{Leu(γ-Me)ol}), the EC50 in experiment [2] came to 7 µM; in experiment [3], 6.5 µM.

For the compound `CC(C)[C@@H](C(=O)N[C@H](C(=O)N[C@@H](CC(=O)N1CCCC1)C(=O)N[C@H](C(=O)N[C@H](CO)CC(C)(C)C)C1(C(=O)O)CCCC1)C(C)(C)C)N(C)C(=O)CCc1ccccc1` (Hydrocinnamoyl-[NMeV][Tle]D(Pyrrolidide)[Asp(3,3-(CH2)4)]-{Leu(γ-Me)ol}), the EC50 came out at 52 µM in experiment [2] and 35 µM in experiment [3].

For `CC(C)C[C@H](NC(=O)[C@H](CC(=O)O)NC(=O)[C@H](CC(N)=O)NC(=O)[C@@H](NC(=O)[C@@H](NC(=O)CCc1ccccc1)C(C)C)C(C)C)C(=O)O`, half-maximal inhibition in experiment [1] (IC50) was put at 4 µM. This lies in the single-digit micromolar range.

Regarding `CC(C)[C@H](NC(=O)C(Cc1ccccc1)Cc1ccccc1)C(=O)N[C@H](C(=O)N[C@@H](CC(=O)N1CCCC1)C(=O)N[C@H](C(=O)N[C@H](CO)CC(C)(C)C)C1(C(=O)O)CCCC1)C(C)(C)C` (Dibenzylacetyl-V[Tle]D(Pyrrolidide)[Asp(3,3-(CH2)4)]-{Leu(γ-Me)ol}), the EC50 in experiment [2] was determined as 12 µM; in experiment [3], 14 µM.

In experiment [1], `CC(C)C[C@H](NC(=O)[C@H](CC(=O)O)NC(=O)[C@H](CC(N)=O)NC(=O)[C@@H](NC(=O)[C@@H](NC(=O)C(Cc1ccccc1)Cc1ccccc1)C(C)C)C(C)C)C(=O)O` gave an IC50 of 0.18 µM. This lies in the sub-micromolar range.

`CC(C)C[C@H](NC(=O)[C@H](CC(=O)O)NC(=O)[C@H](CC(=O)N1CCCC1)NC(=O)[C@@H](NC(=O)[C@H](C(C)C)N(C)C(=O)CCc1ccccc1)C(C)C)C(=O)O` (Hydrocinnamoyl-[NMeV]VD(Pyrrolidide)DL-OH) gave an IC50 in experiment [1] of 0.0075 µM.

Turning to `CC(C)C[C@@H](CO)NC(=O)[C@@H](NC(=O)[C@H](CC(=O)N1CCCC1)NC(=O)[C@@H](NC(=O)[C@H](C(C)C)N(C)C(=O)C(Cc1ccccc1)Cc1ccccc1)C(C)(C)C)C1(C(=O)O)CCCC1` (Dibenzylacetyl-[NMeV][Tle]D(Pyrrolidide)[Asp(3,3-(CH2)4)][Leu(ol)]), the EC50 in experiment [2] and in experiment [3] was 7.3 µM in each case.

Turning to `CC(C)C[C@H](NC(=O)[C@H](CC(=O)O)NC(=O)[C@H](CC(N)=O)NC(=O)[C@@H](NC(=O)[C@@H](NC(=O)[C@H](C)Cc1ccccc1)C(C)C)C(C)C)C(=O)O`, in experiment [1], 0.86 µM corresponded to half-maximal inhibition (IC50).

Take `CC(C)[C@@H](C(=O)N[C@H](C(=O)N[C@@H](CC(=O)N1CCCC1)C(=O)N[C@H](C(=O)N[C@H](CO)CC(C)(C)C)C1(C(=O)O)CCCC1)C(C)(C)C)N(C)C(=O)C(Cc1ccccc1)Cc1ccccc1` (Dibenzylacetyl-[NMeV][Tle]D(Pyrrolidide)[Asp(3,3-(CH2)4)]-{Leu(γ-Me)ol}): the EC50 in experiment [2] came to 3.1 µM; in experiment [3], 4.2 µM.

In experiment [1], `CCC(CC)C(=O)N[C@H](C(=O)N[C@@H](CC(=O)N1CCCC1)C(=O)N[C@H](C(=O)N[C@@H](CC(C)C)C(=O)O)C1(C(=O)O)CC=CC1)C(C)(C)C` registered an IC50 of 0.0064 µM.

In experiment [1], `CC(C)C[C@H](NC(=O)[C@H](CC(=O)O)NC(=O)[C@H](CC(=O)N1CCCC1)NC(=O)[C@@H](NC(=O)CNC(=O)CCc1ccccc1)C(C)C)C(=O)O` (Hydrocinnamoyl-GVD(Pyrrolidide)DL-OH) had an IC50 of 115 µM.

The compound `CC(C)[C@H](NC(=O)CCc1ccccc1)C(=O)N[C@H](C(=O)N[C@@H](CC(=O)N1CCCC1)C(=O)N[C@@H](CC(=O)O)C(=O)N[C@@H](CC(C)(C)C)C(=O)O)C(C)C` (Hydrocinnamoyl-VVD(Pyrrolidide)D[tBuAla]-OH) came in with an IC50 in experiment [1] of 0.005 µM.

For the compound `CC(C)C[C@H](NC(=O)[C@@H](NC(=O)[C@H](CC(=O)N1CCCC1)NC(=O)[C@@H](NC(=O)[C@@H](NC(=O)CCc1ccccc1)C(C)C)C(C)C)C1(C(=O)O)CCCC1)C(=O)O` (Hydrocinnamoyl-VVD(Pyrrolidide)[Asp(3,3-(CH2)4)]L-OH), inhibition in experiment [1] was half-maximal at 0.001 µM (IC50). Compared with the last compound, the IC50 is about 5-fold lower.

For `CC(C)C[C@H](NC(=O)[C@H](CC(=O)O)NC(=O)[C@H](CC(=O)N1CCCC1)NC(=O)[C@@H](NC(=O)[C@H](C)NC(=O)CCc1ccccc1)C(C)C)C(=O)O` (Hydrocinnamoyl-AVD(Pyrrolidide)DL-OH), in experiment [1], the IC50 is 8.8 µM.

In turn, `CC(=O)N[C@H](C(=O)N[C@H](C(=O)N[C@@H](CC(=O)N1CCCC1)C(=O)N[C@@H](CC(=O)O)C(=O)N[C@@H](CC(C)C)C(=O)O)C(C)C)C(C)C` (Ac-VVD(Pyrrolidide)DL-OH) came in with an IC50 in experiment [1] of 0.88 µM.

Compound `CC(C)C[C@H](NC(=O)[C@H](CC(=O)O)NC(=O)[C@H](CC(N)=O)NC(=O)[C@@H](NC(=O)[C@@H](NC(=O)[C@@H](C)Cc1ccccc1)C(C)C)C(C)C)C(=O)O` showed an IC50 in experiment [1] of 11 µM.

Compound `CC(C)C[C@H](NC(=O)[C@H](CC(=O)O)NC(=O)[C@H](CC(=O)N1CCCC1)NC(=O)[C@@H](NC(=O)[C@@H](NC(=O)C(Cc1ccccc1)Cc1ccccc1)C(C)C)C(C)C)C(=O)O` (Dibenzylacetyl-VVD(Pyrrolidide)DL-OH) gave an IC50 in experiment [1] of 0.0007 µM.

For the compound `CC(C)[C@@H](C(=O)N[C@H](C(=O)N[C@@H](CC(N)=O)C(=O)N[C@H](C(=O)N[C@H](CO)CC(C)(C)C)C1(C(=O)O)CCCC1)C(C)(C)C)N(C)C(=O)C(Cc1ccccc1)Cc1ccccc1` (Dibenzylacetyl-[NMeV][Tle]N[Asp(3,3-(CH2)4)]-{Leu(γ-Me)ol}), the EC50 in experiment [2] and in experiment [3] was 150 µM each time.

On to `CCC(CC)C(=O)N[C@H](C(=O)N[C@@H](CC(=O)N1CCCC1)C(=O)N[C@@H](CC(=O)O)C(=O)N[C@@H](CC(C)C)C(=O)O)C(C)C` ({Butanoyl(2-Et)}-VD(Pyrrolidide)DL-OH), for which half-maximal inhibition in experiment [1] (IC50) was put at 0.86 µM.

Turning to `CC(C)[C@@H](C(=O)N[C@H](C(=O)N[C@@H](CC(=O)N1CCCC1)C(=O)N[C@H](C(=O)N[C@@H](CC(C)(C)C)C(=O)O)C1(C(=O)O)CCCC1)C(C)(C)C)N(C)C(=O)C(Cc1ccccc1)Cc1ccccc1` (Dibenzylacetyl-[NMeV][Tle]D(Pyrrolidide)[Asp(3,3-(CH2)4)][tBuAla]-OH), the results for the EC50 in experiment [2] and in experiment [3] were 35 µM and 30 µM, respectively.

In experiment [1], `CC(C)C[C@H](NC(=O)[C@H](CC(=O)O)NC(=O)[C@H](CC(N)=O)NC(=O)[C@@H](NC(=O)[C@H](C(C)C)N(C)C(=O)C(Cc1ccccc1)Cc1ccccc1)C(C)C)C(=O)O` had an IC50 of 0.022 µM.

Take `CC(C)C[C@H](NC(=O)[C@H](CC(=O)O)NC(=O)[C@H](CC(=O)N1CCCC1)NC(=O)[C@@H](NC(=O)[C@@H](NC(=O)CCc1ccccc1)C(C)C)C(C)C)C(=O)O` (Hydrocinnamoyl-VVD(Pyrrolidide)DL-OH): in experiment [1], half-maximal inhibition (IC50) required 0.024 µM.

As for `CC[C@H](C)[C@H](NC(=O)CCc1ccccc1)C(=O)N[C@H](C(=O)N[C@@H](CC(=O)N1CCCC1)C(=O)N[C@@H](CC(=O)O)C(=O)N[C@@H](CC(C)C)C(=O)O)C(C)C` (Hydrocinnamoyl-IVD(Pyrrolidide)DL-OH), the IC50 in experiment [1] worked out at 0.061 µM.

For the compound `CC(C)C[C@H](NC(=O)[C@H](CC(=O)O)NC(=O)[C@H](CC(=O)N1CCCC1)NC(=O)[C@@H](NC(=O)[C@@H](NC(=O)CCc1ccccc1)C1CCCCC1)C(C)C)C(=O)O` (Hydrocinnamoyl-[Chg]VD(Pyrrolidide)DL-OH), in experiment [1], it took 0.022 µM to reach half-maximal inhibition (IC50).

For `CC(C)[C@H](NC(=O)CCc1ccccc1)C(=O)N[C@H](C(=O)N[C@@H](CC(=O)N1CCCC1)C(=O)N[C@@H](CC(=O)O)C(=O)N[C@H](CO)CC(C)(C)C)C(C)C` (Hydrocinnamoyl-VVD(Pyrrolidide)D-{Leu(γ-Me)ol}), the IC50 in experiment [1] came out at 0.034 µM.
